Literature values in US20240261298A1, “METHODS OF TREATING DEPRESSION AND ANXIETY” (Woolsey Pharmaceuticals, Inc., priority 2021, published 2024).
Counter-ions that a name gives are not always drawn.

What was measured:
adult mice = conditions: exposure to fasudil
[1] = 1 hydroxy (M3) metabolite, in vivo

half-life [1]	Structure (SMILES)	anxiety-like behaviors (adult mice)
–	O=S(=O)(c1cccc2cnccc12)N1CCCNCC1 [Fasudil, Hexahydro-1-(5-isoquinolinesulfonyl)-1H-1,4-diazepine monohydrochloride hemihydrate]	induces anxiety-like behaviors
about 8 hours	O=S(=O)(c1cccc2c(O)nccc12)N1CCCNCC1 [M3]	–
